ChEMBL document CHEMBL4619718, “Discovery of cyclic guanidine-linked sulfonamides as inhibitors of LMTK3 kinase” (Bioorg Med Chem Lett, 2020)
Active and inactive are the calls of the source. No cut-off for these calls is given here.

How the values were obtained:
[1] = target: T1, Serine/threonine-protein kinase LMTK3 (Homo sapiens) (UniProt Q96Q04); test: Binding affinity to full length LMTK3 (unknown origin) assessed as thermal stabilization of protein at 54 degC incubated for 3 mins followed by 3 min incubated at room temperature by CETSA-based Western blot analysis
T1 sequence (whole entry): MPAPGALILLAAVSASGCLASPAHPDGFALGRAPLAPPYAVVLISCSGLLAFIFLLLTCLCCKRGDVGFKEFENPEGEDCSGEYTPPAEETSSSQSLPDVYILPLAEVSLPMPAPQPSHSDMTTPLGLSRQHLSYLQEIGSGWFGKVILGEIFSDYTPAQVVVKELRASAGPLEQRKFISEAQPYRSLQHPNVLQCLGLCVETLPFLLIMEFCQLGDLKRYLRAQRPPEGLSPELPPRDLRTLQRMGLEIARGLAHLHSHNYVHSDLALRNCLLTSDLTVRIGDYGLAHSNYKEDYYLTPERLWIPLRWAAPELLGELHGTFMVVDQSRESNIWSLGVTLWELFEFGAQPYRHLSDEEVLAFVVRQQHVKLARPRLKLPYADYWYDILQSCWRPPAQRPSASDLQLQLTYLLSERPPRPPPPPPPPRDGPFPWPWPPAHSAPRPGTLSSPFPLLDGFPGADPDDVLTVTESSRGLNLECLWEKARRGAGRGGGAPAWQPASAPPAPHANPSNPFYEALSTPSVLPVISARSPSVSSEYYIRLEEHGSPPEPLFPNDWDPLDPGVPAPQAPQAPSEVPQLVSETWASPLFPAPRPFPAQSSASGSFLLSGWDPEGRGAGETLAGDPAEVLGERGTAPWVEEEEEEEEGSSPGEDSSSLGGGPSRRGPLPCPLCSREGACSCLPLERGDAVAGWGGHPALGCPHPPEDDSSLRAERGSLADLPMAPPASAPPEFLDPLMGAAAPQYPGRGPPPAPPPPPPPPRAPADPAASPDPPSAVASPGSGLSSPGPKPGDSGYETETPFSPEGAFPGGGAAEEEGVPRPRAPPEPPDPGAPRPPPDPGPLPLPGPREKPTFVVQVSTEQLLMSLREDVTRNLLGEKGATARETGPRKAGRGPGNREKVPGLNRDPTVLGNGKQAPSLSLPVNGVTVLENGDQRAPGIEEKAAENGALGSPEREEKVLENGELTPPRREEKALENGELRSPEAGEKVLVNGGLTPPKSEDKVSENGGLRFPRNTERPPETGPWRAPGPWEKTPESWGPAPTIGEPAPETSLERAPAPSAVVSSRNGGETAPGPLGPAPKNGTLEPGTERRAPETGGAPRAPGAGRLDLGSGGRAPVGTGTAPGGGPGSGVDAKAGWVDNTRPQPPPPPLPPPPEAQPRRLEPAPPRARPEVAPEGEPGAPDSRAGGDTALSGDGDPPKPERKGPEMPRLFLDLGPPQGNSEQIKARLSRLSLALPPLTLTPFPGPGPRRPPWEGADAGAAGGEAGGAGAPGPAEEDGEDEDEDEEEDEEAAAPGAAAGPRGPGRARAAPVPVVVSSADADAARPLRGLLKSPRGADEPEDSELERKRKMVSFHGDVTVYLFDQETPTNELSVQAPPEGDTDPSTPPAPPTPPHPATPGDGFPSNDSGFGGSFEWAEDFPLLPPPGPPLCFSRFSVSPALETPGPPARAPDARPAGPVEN

[2] = target: Insulin receptor (Homo sapiens) (UniProt P06213); test: Inhibition of INSR (unknown origin) at 10 uM relative to control
Sequence of Insulin receptor (Homo sapiens) (P06213 28-758 limits assumed): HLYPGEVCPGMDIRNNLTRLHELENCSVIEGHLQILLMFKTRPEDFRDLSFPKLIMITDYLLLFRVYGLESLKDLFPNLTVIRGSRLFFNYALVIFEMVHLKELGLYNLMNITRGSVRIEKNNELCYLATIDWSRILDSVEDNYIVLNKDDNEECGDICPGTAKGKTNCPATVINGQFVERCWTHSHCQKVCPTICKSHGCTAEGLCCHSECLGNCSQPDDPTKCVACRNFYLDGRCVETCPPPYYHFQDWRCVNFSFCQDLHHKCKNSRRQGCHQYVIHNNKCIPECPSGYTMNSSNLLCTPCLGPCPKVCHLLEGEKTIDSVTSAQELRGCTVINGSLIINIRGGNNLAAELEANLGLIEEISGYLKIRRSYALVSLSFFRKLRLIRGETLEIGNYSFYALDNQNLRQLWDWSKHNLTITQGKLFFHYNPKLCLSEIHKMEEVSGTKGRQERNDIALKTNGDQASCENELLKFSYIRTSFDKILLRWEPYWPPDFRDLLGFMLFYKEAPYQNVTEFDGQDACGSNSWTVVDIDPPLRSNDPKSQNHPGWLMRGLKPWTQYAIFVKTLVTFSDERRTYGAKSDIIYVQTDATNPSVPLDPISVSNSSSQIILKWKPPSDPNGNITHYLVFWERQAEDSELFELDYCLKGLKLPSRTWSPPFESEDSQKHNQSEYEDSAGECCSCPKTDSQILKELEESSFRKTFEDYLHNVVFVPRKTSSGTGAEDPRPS
Sequence of Insulin receptor (Homo sapiens) (P06213 763-1382 limits assumed): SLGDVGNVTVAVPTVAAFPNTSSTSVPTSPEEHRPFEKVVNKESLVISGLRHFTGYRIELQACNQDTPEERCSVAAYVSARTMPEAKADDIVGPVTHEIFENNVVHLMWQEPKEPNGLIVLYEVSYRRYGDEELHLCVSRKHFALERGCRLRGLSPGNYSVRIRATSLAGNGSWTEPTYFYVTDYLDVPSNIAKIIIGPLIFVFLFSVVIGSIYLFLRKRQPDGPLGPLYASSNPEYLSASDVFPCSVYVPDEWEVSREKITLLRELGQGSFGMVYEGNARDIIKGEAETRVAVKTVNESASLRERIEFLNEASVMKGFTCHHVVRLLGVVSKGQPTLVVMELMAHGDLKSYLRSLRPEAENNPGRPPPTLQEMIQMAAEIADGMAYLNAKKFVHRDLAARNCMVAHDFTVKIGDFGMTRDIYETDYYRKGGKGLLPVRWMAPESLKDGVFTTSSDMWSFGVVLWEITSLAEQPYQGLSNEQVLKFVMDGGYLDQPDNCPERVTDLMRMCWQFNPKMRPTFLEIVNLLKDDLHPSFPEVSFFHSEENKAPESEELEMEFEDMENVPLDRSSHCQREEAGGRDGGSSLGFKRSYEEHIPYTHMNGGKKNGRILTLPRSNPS

[3] = target: T2, Muscle, skeletal receptor tyrosine-protein kinase (Homo sapiens) (UniProt O15146); test: Inhibition of MUSK (unknown origin) at 10 uM relative to control
T2 sequence (whole entry): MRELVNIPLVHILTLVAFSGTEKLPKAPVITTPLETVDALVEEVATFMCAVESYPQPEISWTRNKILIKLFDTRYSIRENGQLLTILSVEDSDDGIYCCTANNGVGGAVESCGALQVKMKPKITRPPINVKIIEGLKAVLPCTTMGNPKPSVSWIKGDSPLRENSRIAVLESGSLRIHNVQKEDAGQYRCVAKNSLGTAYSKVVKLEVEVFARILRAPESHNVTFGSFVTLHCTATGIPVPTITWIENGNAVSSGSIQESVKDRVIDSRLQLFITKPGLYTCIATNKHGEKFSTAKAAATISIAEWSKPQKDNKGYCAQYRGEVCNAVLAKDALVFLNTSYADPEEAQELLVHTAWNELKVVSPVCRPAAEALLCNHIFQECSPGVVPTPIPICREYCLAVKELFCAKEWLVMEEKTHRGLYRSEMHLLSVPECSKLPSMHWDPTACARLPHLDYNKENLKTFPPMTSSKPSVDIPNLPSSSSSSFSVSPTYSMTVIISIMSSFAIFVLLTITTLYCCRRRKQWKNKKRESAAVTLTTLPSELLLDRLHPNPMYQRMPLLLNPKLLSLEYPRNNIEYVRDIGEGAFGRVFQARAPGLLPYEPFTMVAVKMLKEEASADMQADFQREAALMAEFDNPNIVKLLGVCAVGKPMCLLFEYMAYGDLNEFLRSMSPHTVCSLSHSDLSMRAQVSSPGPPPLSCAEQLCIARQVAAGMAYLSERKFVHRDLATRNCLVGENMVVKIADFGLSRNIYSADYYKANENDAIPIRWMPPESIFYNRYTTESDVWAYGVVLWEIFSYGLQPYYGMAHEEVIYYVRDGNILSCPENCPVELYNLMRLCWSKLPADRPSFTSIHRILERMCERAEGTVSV

[4] = target: Insulin-like growth factor 1 receptor (Homo sapiens) (UniProt P08069); test: Inhibition of IGF1R (unknown origin) at 10 uM relative to control
Sequence of Insulin-like growth factor 1 receptor (Homo sapiens) (P08069 31-736 limits assumed): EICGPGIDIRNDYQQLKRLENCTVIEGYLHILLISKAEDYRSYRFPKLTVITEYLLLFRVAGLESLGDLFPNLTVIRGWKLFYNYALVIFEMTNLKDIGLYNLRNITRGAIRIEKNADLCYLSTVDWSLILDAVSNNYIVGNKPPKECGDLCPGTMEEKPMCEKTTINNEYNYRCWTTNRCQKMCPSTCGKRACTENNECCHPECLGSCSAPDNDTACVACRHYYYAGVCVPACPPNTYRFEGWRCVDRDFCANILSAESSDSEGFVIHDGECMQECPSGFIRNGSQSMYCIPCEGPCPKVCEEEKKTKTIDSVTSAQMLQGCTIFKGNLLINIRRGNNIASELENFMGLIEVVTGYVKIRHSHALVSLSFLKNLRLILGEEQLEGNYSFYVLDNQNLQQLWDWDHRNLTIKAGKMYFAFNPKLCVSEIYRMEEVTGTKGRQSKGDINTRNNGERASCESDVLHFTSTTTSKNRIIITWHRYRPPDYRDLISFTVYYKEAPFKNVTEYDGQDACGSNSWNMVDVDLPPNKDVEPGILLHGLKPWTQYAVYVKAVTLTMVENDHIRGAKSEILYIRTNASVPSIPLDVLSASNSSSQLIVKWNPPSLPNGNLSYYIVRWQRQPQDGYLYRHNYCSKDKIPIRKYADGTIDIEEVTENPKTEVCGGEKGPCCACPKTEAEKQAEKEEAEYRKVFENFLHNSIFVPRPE
Sequence of Insulin-like growth factor 1 receptor (Homo sapiens) (P08069 741-1367 limits assumed): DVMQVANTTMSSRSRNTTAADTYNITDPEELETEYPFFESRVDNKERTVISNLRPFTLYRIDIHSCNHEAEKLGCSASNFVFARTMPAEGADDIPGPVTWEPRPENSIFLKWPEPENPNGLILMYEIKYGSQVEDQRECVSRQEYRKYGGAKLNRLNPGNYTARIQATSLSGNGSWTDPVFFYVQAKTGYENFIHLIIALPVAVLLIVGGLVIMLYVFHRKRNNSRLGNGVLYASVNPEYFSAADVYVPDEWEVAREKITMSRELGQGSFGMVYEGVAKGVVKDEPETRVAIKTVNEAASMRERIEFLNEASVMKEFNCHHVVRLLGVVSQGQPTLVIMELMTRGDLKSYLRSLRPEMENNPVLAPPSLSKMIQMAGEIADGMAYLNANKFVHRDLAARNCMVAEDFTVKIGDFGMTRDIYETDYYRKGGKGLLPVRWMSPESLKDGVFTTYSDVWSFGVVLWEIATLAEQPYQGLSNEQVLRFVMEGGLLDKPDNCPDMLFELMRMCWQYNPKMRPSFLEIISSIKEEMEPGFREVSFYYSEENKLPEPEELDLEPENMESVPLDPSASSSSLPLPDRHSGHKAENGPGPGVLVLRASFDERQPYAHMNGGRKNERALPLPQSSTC

[5] = target: T3, Serine/threonine-protein kinase LMTK3 (Homo sapiens, UniProt Q96Q04); test: Inhibition of LMTK3 (unknown origin)
T3 sequence (Q96Q04 whole entry): T1 sequence (whole entry)

[6] = target: BDNF/NT-3 growth factors receptor (Homo sapiens) (UniProt Q16620); test: Inhibition of TRKB (unknown origin) at 10 uM relative to control
Sequence of BDNF/NT-3 growth factors receptor (Homo sapiens) (Q16620 32-822 limits assumed): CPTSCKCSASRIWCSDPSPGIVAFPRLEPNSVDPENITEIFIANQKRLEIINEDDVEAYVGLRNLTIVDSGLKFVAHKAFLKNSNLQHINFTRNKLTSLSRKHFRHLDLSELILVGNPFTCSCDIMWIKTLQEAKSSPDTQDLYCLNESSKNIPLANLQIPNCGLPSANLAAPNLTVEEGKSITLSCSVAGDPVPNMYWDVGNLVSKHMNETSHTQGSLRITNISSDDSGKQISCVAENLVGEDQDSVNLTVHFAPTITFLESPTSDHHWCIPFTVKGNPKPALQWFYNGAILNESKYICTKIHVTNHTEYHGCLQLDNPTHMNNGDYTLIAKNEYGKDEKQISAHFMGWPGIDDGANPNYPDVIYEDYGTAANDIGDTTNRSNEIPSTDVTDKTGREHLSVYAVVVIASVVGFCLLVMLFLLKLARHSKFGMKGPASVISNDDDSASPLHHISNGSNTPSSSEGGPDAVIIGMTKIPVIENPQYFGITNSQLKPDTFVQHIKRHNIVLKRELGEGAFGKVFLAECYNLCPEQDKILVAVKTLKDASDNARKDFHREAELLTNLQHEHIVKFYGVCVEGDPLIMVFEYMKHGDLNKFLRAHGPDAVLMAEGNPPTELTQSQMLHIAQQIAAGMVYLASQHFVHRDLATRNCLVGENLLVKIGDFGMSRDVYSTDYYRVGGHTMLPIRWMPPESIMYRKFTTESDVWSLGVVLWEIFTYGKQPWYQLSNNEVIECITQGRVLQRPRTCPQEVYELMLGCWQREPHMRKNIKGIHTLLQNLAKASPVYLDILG

[7] = system: MCF7; test: Antiproliferative activity against human MCF7 cells at 20 uM incubated for 6 days by MTT assay relative to control; assay type: functional
[8] = system: T47D; test: Antiproliferative activity against human T47D cells at 20 uM incubated for 6 days by MTT assay relative to control; assay type: functional
[9] = target: T2, Muscle, skeletal receptor tyrosine-protein kinase (Homo sapiens); test: Inhibition of MUSK (unknown origin) at 100 nM relative to control
[10] = target: BDNF/NT-3 growth factors receptor (Homo sapiens) (UniProt Q16620); conditions: 1.52 nM
Description: Inhibition of TRKB (unknown origin) at 1.52 nM relative to control

[11] = system: MCF7; test: Antiproliferative activity against human MCF7 cells at 5 uM incubated for 6 days by MTT assay relative to control; assay type: functional
[12] = target: T1, Serine/threonine-protein kinase LMTK3 (Homo sapiens); test: Binding affinity to hyper glycosylated LMTK3 (unknown origin) assessed as change in melting temperature at 10 uM by CETSA-based Western blot analysis
[13] = target: T1, Serine/threonine-protein kinase LMTK3 (Homo sapiens); test: Binding affinity to full length LMTK3 (unknown origin) assessed as change in melting temperature at 10 uM by CETSA-based Western blot analysis
[14] = system: T47D; test: Antiproliferative activity against human T47D cells at 10 uM incubated for 6 days by MTT assay relative to control; assay type: functional
[15] = target: T1, Serine/threonine-protein kinase LMTK3 (Homo sapiens); test: Binding affinity to full length LMTK3 (unknown origin) assessed as thermal stabilization of protein at 0.3 to 1 uM at 54 degC incubated for 3 mins followed by 3 min incubated at room temperature by CETSA-based Western blot analysis
[16] = system: T47D; test: Antiproliferative activity against human T47D cells at 5 uM incubated for 6 days by MTT assay relative to control; assay type: functional
[17] = system: MCF7; test: Antiproliferative activity against human MCF7 cells at 10 uM incubated for 6 days by MTT assay relative to control; assay type: functional

Row | SMILES | Activity [1] | inhibition [2] [%] | inhibition [3] [%] | inhibition [4] [%] | IC50 [5] [µM] | inhibition [6] [%] | inhibition [9] [%] | inhibition [10] [%] | Activity [12] | Activity [13] | Activity [15] | Activity [7] [%] | Activity [8] [%] | Activity [11] [%] | Activity [14] [%] | Activity [16] [%] | Activity [17] [%]
1 | Cc1ccc(S(=O)(=O)N[C@@H](Cc2ccc(O)cc2)CN2C(=N)NC[C@@H]2CC(C)C)cc1 |  | 3.9 | 22.2 | 7.8 | 0.308 | 0.8 |  |  |  |  |  |  |  |  |  |  | 
2 | CC(C)C[C@H]1CNC(=N)N1C[C@H](Cc1ccccc1)NS(=O)(=O)c1ccccc1 |  | 2.3 | 27.3 | 8.3 | 0.654 | 2 |  |  |  |  |  | 100 | 100 |  |  |  | 
3 | N=C1NC[C@H](CC2CCCCC2)N1C[C@H](Cc1ccccc1)NS(=O)(=O)c1ccccc1 | Active | 18.4 | 103 | 11.4 | 1.61 | 10.6 |  |  | Active | Active | Active |  |  | 60 | 100 | 60 | 100

The next lines start with results.

Row | Activity [1] | inhibition [2] [%] | inhibition [3] [%] | inhibition [4] [%] | IC50 [5] [µM] | inhibition [6] [%] | inhibition [9] [%] | inhibition [10] [%] | Activity [12] | Activity [13] | Activity [15] | SMILES | Activity [7] [%] | Activity [8] [%] | Activity [11] [%] | Activity [14] [%] | Activity [16] [%] | Activity [17] [%]
4 | inactive | 0.1 | 56.8 | 16.1 | 0.226 | 16 |  |  |  |  |  | N=C1NC[C@H](CC2CCCCC2)N1C[C@H](Cc1ccc(O)cc1)NS(=O)(=O)c1ccccc1Cl |  |  |  |  |  | 
5 |  | 5.7 | 79.8 | 16.1 | 0.318 | 25.3 |  |  |  |  |  | Cc1ccc(S(=O)(=O)N[C@@H](Cc2ccc(O)cc2)CN2C(=N)NC[C@@H]2CC2CCCCC2)cc1 | 50 | 50 |  |  |  | 
6 |  |  |  |  | 4.65 |  | 54.1 | > 95 |  |  |  | CN1CCN(c2ccc(C(=O)Nc3n[nH]c4ccc(Cc5cc(F)cc(F)c5)cc34)c(NC3CCOCC3)c2)CC1 [ENTRECTINIB] |  |  |  |  |  | 
7 |  |  |  |  | 3.16 |  | 75.1 | > 95 |  |  |  | C[C@@]1(C(=O)Nc2ccc(F)nc2)CCCN1c1nc(Nc2cc(C3CC3)n[nH]2)c2cccn2n1 [BMS-754807] |  |  |  |  |  | 
8 |  | 7.3 | 19.8 | 15.9 | 0.21 | 0.1 |  |  |  |  |  | CC(C)C[C@H]1CNC(=N)N1C[C@H](Cc1ccc(O)cc1)NS(=O)(=O)c1ccccc1Cl |  |  |  |  |  | 
